Laboratory results reported in patent publication US8557805B2, “Fused ring compound and use thereof” (Takeda Pharmaceutical Company Limited, priority 2008, dated 2013).

Legend:
[1] = molecular target: T1, human liver GK (GST-hLGK1) (Homo sapiens, UniProt P35557); assay: Determination of GK activity value (Mant-ATP to Mant-ADP conversion, capillary electrophoresis); format: biochemical; details: reaction started with 25 mM D-glucose solution, 37° C., 60 min, concentration at midpoint between maximum activity value and control group activity value
T1 construct: with a BamHI site added to immediately before the initiation codon; made in house; host or cells: Escherichia coli BL21 (Stratagene), plasmid pGEX6P-2/hLGK1
T1 sequence (P35557 1-464 isoform P35557-3): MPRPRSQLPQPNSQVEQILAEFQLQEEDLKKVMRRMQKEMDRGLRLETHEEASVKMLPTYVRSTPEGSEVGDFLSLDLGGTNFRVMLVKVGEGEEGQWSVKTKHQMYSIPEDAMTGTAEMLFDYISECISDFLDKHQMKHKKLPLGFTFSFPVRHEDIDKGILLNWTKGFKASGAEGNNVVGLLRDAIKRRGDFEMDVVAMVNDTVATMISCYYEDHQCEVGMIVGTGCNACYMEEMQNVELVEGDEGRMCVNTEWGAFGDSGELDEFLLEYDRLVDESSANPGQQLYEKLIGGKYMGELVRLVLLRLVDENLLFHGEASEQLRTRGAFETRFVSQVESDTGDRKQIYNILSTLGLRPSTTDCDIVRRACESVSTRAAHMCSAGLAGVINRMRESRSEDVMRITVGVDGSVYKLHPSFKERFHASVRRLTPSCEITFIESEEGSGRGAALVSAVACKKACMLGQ
Experimental: Plasmid DNA to be used for the expression of a protein (GST-hLGK1) containing GST (Glutathione S-transferase) added to the amino terminal of human liver GK in Escherichia coli was prepared as follows.
First, PCR was performed using human liver cDNA (Marathon Ready cDNA, Clontech Laboratories, Inc.) as a template and two kinds of synthetic DNAs (5′-[…]-3′ (SEQ ID NO: 1) and 5′-[…]-3′ (SEQ ID NO: 2)), and the obtained DNA fragment was closed using a TOPO TA Cloning Kit (Invitrogen Corporation). PCR was performed using the obtained plasmid DNA as a template and a synthetic DNA (5′-[…] CAGAG-3′ (SEQ ID NO: 3)) with a BamHI site added to immediately before the initiation codon, and a synthetic DNA (5′-[…]-3′ (SEQ ID NO: 4)) with an EcoRI site added to immediately after the stop codon. The obtained DNA fragment was subcloned to pGEX6P-2 (Amersham Biosciences K.K.) cleaved with BamHI and EcoRI to give a plasmid (pGEX6P-2/hLGK1) for expression of human liver GK.
BL21 strain (Stratagene) transformed with pGEX6P-2/hLGK1 obtained in (1) was cultured with shaking at 37° C. for 14 hr in a 200 ml Erlenmeyer flask containing 50 ml of 100 μg/ml ampicillin-containing LB medium. The culture medium (25 ml) was diluted with 225 ml of 100 μg/ml ampicillin-containing LB medium, and further cultured with shaking at 37° C. for 1 hr in a 1 L Erlenmeyer flask. After culture, the Erlenmeyer flask was cooled on ice, 125 μL of 100 mM isopropyl-thio-β-D-galactopyranoside (IPTG) was added (final concentration 50 μM), and cultured at 17° C. for 20 hr. The culture medium was centrifuged, and the obtained fungus was disrupted by ultrasonication. The object protein (GST-hLGK1) was purified from the supernatant using Glutathione Sepharose 4B (Amersham Biosciences K.K.).
A solution (5 μL) of test compound in 50% dimethyl sulfoxide was added to each well of 384 well black plate (Nalge Nunc International K.K.). Then, a solution (35 μL) obtained by diluting GST-hLGK1 obtained in (2) with measurement buffer (containing 50 mM HEPES (pH 7.4), 200 mM KCl, 5 mM MgCl2, 2.5 mM DTT and 50 μM 2′-(or-3′)-O—(N-methylanthraniloyl)adenosine 5′-triphosphate (Mant-ATP) (Jena Bioscience GmbH)) to 6 μg/mL was added to each well.
Each well was stood at 37° C. for 10 min, and 25 mM D-glucose solution (10 μL) was added to start the reaction.
Each well after the reaction was stood at 37° C. for 60 min, and the reaction was quenched by adding 25 μL of a quenching solution (containing 200 mM HEPES (pH 7.4), 20 mM MgCl2, 200 mM EDTA, 0.03% Triton-X 100, 0.3% Coating 3 reagent (Caliper Life Sciences, Inc.)).
2′-(or -3′)-O—(N-methylanthraniloyl)adenosine 5′-triphosphate (Mant-ATP, substrate) and Mant-ADP (reaction resultant product) were separated from each well after the reaction by a microchip type capillary electrophoresis apparatus 250 HTS (Caliper Life Sciences, Inc.). The reaction rate [(reaction resultant product peak height)/(reaction resultant product peak height+substrate peak height)×100(%)] was calculated from the ratio of the substrate peak height and reaction resultant product peak height obtained by fluorescence detection (excitation wavelength 355 nm, measurement wavelength 460 nm) and used as the index of GK activity.
3.5 As a control group, the reaction rate was calculated in the same manner as above except that “solution in 50% dimethyl sulfoxide (without test compound)” was used instead of “solution of test compound in 50% dimethyl sulfoxide”.
A concentration dependency curve of the test compound was drawn with the percentage obtained by dividing the reaction rate of the well added with the test compound (test compound addition group) by the reaction rate of the control group was taken as the GK activity value of the test compound, and the concentration of the test compound at the midpoint between the maximum activity value of the test compound addition group and the control group activity value is shown as EC50 value.

Structure (SMILES)	EC50 [1] [µM]	melting point [°C]
CNC(=O)CC1CN=C(c2cc3cc(Oc4ccc(S(C)(=O)=O)nc4)ccc3[nH]2)S1 (centres unmarked) [Example 53, N-Methyl-2-[2-(5-{[6-(methylsulfonyl)pyridin-3-yl]oxy}-1H-indol-2-yl)-4,5-dihydro-1,3-thiazol-5-yl]acetamide]	0.13	150 to 152
CCNC(=O)CC1CN=C(c2cc3cc(Oc4ccc(S(C)(=O)=O)nc4)ccc3[nH]2)S1 (centres unmarked) [Example 54, N-Ethyl-2-[2-(5-{[6-(methylsulfonyl)pyridin-3-yl]oxy}-1H-indol-2-yl)-4,5-dihydro-1,3-thiazol-5-yl]acetamide]	0.12	216 to 217
CN(C)C(=O)CC1CN=C(c2cc3cc(Oc4ccc(S(C)(=O)=O)nc4)ccc3[nH]2)S1 (centres unmarked) [Example 55, N,N-Dimethyl-2-[2-(5-{[6-(methylsulfonyl)pyridin-3-yl]oxy}-1H-indol-2-yl)-4,5-dihydro-1,3-thiazol-5-yl]acetamide]	0.18	162 to 164
COCCNC(=O)CC1CN=C(c2cc3cc(Oc4ccc(S(C)(=O)=O)nc4)ccc3[nH]2)S1 (centres unmarked) [Example 57, N-(2-Methoxyethyl)-2-[2-(5-{[6-(methylsulfonyl)pyridin-3-yl]oxy}-1H-indol-2-yl)-4,5-dihydro-1,3-thiazol-5-yl]acetamide]	0.16	155 to 156
CS(=O)(=O)c1ccc(Oc2ccc3[nH]c(C4=NCC(CC(=O)N5CCOCC5)S4)cc3c2)cn1 (centres unmarked) [Example 58, 5-{[6-(Methylsulfonyl)pyridin-3-yl]oxy}-2-[5-(2-morpholin-4-yl-2-oxoethyl)-4,5-dihydro-1,3-thiazol-2-yl]-1H-indole]	0.12	190 to 191

These reach a lower EC50 [1]. Values come first.

EC50 [1] [µM]	melting point [°C]	Structure (SMILES)
0.073	234 to 235	CS(=O)(=O)c1ccc(Oc2ccc3[nH]c(C4=NCC(CC(=O)NCC(F)(F)F)S4)cc3c2)cn1 (centres unmarked) [Example 56, 2-[2-(5-{[6-(Methylsulfonyl)pyridin-3-yl]oxy}-1H-indol-2-yl)-4,5-dihydro-1,3-thiazol-5-yl]-N-(2,2,2-trifluoroethyl)acetamide]
0.054	152 to 154	Cc1cc(Oc2ccc(S(C)(=O)=O)nc2)cc2cc(C3=NCC(CC(=O)N4CCOCC4)S3)[nH]c12 (centres unmarked) [Example 80, 7-Methyl-5-{[6-(methylsulfonyl)pyridin-3-yl]oxy}-2-[5-(2-morpholin-4-yl-2-oxoethyl)-4,5-dihydro-1,3-thiazol-2-yl]-1H-indole]
0.048	157 to 160	Cc1cc(Oc2ccc(S(C)(=O)=O)nc2)cc2cc(C3=NCC(CC(=O)N4CC[S+]([O-])CC4)S3)[nH]c12 (centres unmarked) [Example 81, 7-Methyl-5-{[6-(methylsulfonyl)pyridin-3-yl]oxy}-2-{5-[2-(1-oxidothiomorpholin-4-yl)-2-oxoethyl]-4,5-dihydro-1,3-thiazol-2-yl}-1H-indole]
0.033	183 to 184	CNC(=O)CC1CN=C(c2cc3cc(Oc4ccc(S(C)(=O)=O)nc4)cc(C)c3[nH]2)S1 (centres unmarked) [Example 73, 2-[2-(7-Methyl-5-{[6-(methylsulfonyl)pyridin-3-yl]oxy}-1H-indol-2-yl)-4,5-dihydro-1,3-thiazol-5-yl]-N-methylacetamide]
0.029	202 to 203	Cc1cc(Oc2ccc(S(C)(=O)=O)nc2)cc2cc(C3=NCC(CC(N)=O)S3)[nH]c12 (centres unmarked) [Example 72, 2-[2-(7-Methyl-5-{[6-(methylsulfonyl)pyridin-3-yl]oxy}-1H-indol-2-yl)-4,5-dihydro-1,3-thiazol-5-yl]acetamide]
0.021	197 to 198	CCNC(=O)CC1CN=C(c2cc3cc(Oc4ccc(S(C)(=O)=O)nc4)cc(OC4CCOCC4)c3[nH]2)S1 (centres unmarked) [Example 42, N-Ethyl-2-{2-[5-{[6-(methylsulfonyl)pyridin-3-yl]oxy}-7-(tetrahydro-2H-pyran-4-yloxy)-1H-indol-2-yl]-4,5-dihydro-1,3-thiazol-5-yl}acetamide]
0.018	194 to 196	CCc1cc(Oc2ccc(S(C)(=O)=O)nc2)cc2cc(C3=NCC(CC(=O)N4CC[S+]([O-])CC4)S3)[nH]c12 (centres unmarked) [Example 82, 7-Ethyl-5-{[6-(methylsulfonyl)pyridin-3-yl]oxy}-2-{5-[2-(1-oxidothiomorpholin-4-yl)-2-oxoethyl]-4,5-dihydro-1,3-thiazol-2-yl}-1H-indole]
0.016	190 to 191	CCc1cc(Oc2ccc(S(C)(=O)=O)nc2)cc2cc(C3=NCC(CC(N)=O)S3)[nH]c12 (centres unmarked) [Example 61, 2-[2-(7-Ethyl-5-{[6-(methylsulfonyl)pyridin-3-yl]oxy}-1H-indol-2-yl)-4,5-dihydro-1,3-thiazol-5-yl]acetamide]
